{"source": "patent US20220267380A1", "about": "“Glycopeptides Increasing Lipid Synthesis” (TFCHEM, priority 2019, published 2022)", "tested_on": "normal human dermal fibroblasts (NHDF)", "test": "Gene expression in NHDF, full transcriptome analysis with Affymetrix U219 microarray", "type": "cell-based", "conditions": "NHDF, 10 mg/ml, 24 h", "description": "In the present study, the transcriptional effects (modulation of gene expression) of compounds 1, 2, 3 and 4 were evaluated on normal human dermal fibroblasts (NHDF) under basal conditions.\nMore specifically, the comparative analysis of the different transcriptomic profiles was performed using an Affymetrix GeneAtlas platform and the human “full transcriptome” U219 chip, which includes 36,000 transcripts and variants.\nFibroblasts were seeded in 24-well plates and cultured in culture medium for 24 hours. The medium was then replaced by assay medium and cells were incubated for further 24 hours. The medium was replaced by assay medium containing or not (control) the test compounds at different concentrations and the cells were preincubated for 24 hours. All experimental conditions were performed in triplicate. At the end of incubation, the culture supernatants were removed and the cells were washed in a phosphate buffered saline (PBS) solution and immediately frozen at −80° C.\nBefore RNA extraction, the replicates were pooled. Total RNA was extracted from each sample using TriPure Isolation Reagent® according to the supplier's instructions. The amount and quality of total RNA were evaluated for all samples using capillary electrophoresis (Bioanalyzer 2100, Agilent technologies). From each RNA, a labeled and amplified anti-sens RNA (aRNA) was obtained using GeneChip 3′IVT PLUS Kit (Affymetrix). For each labeled and amplified aRNA sample the profiles were evaluated before and after fragmentation using capillary electrophoresis (Bioanalyzer 2100, Agilent technologies). Hybridization of fragmented aRNA onto Affymetrix® U219 chip (36,000 transcripts and variants) was performed in the GeneAtlas™ fluidics Affymetrix® hybridization station for 20 hours at 45° C. U219 chip was analyzed using the GeneAtlas™ Imaging station (Affymetrix®—resolution 2 μm) to generate fluorescence intensity data.\nExpression Console and Quality controls: data were normalized with the Expression Console (Affymetrix®) software using RMA algorithm. Then a quality control of the labeling and the hybridization was performed. Hybridization and labeling steps successfully passed the quality controls for these experiments.\nData reduction, Excel file description: once normalized with Expression Console, data were transferred into a Microsoft Excel® file in order to go further into data reduction.\nCalculation and tools were added in order to rank and sort data, and finally to support data interpretation. Detection thresholds in terms of fold change were defined and applied on normalized data.\nResults are considered and presented or commented per gene (and not probe). A probe set is a collection of probes designed to interrogate a given sequence of a gene. For data interpretation, the most important relative expression value obtained with one probe is considered to be representative of the corresponding gene. The file contains the following data: • Relative expression (RE) for each sample, • Fold change calculation, • Gene information.", "key": {"[1]": {"conditions": "relative expression adjusted to detection limit (<20)"}}}
{"compound": "N[C@@H](CCCCNCC(F)(F)[C@]1(O)O[C@H](CO)[C@H](O)[C@H](O)[C@H]1O)C(=O)O", "note": "[Compound 3]", "values": [{"measurement": "Fold change, FADS1", "setting": "vs control, Affymetrix probe set 11752670_a_at", "value": 3.55}, {"measurement": "Fold change, TPP1", "setting": "vs control, Affymetrix probe set 11753248_a_at", "value": 2.05}, {"measurement": "Fold change, GBA///GBAP1", "setting": "vs control, Affymetrix probe set 11753439_a_at", "value": 2.35}, {"measurement": "Fold change, GBA", "setting": "vs control, Affymetrix probe set 11753440_x_at", "value": 2.30}, {"measurement": "Fold change, GBA///GBAP1", "setting": "vs control, Affymetrix probe set 11754819_x_at", "value": 2.08}, {"measurement": "Fold change, LPCAT3", "setting": "vs control, Affymetrix probe set 11755123_x_at", "value": 2.13}, {"measurement": "Fold change, FADS1", "setting": "vs control, Affymetrix probe set 11755251_x_at", "value": 3.75}, {"measurement": "Fold change, LPCAT3", "setting": "vs control, Affymetrix probe set 11757008_a_at", "value": 2.39}, {"measurement": "Fold change, TPP1", "setting": "vs control, Affymetrix probe set 11757469_s_at", "value": 2.14}, {"measurement": "Fold change, HSD17B14", "setting": "vs control, Affymetrix probe set 11757575_x_at", "value": 2.92}, {"measurement": "Fold change, TM7SF2", "setting": "vs control, Affymetrix probe set 11762755_x_at", "value": 2.10}, {"measurement": "REadj2, ACOT1///ACOT2", "setting": "[1]", "value": 462.96}, {"measurement": "REadj2, APOD", "setting": "[1]", "value": 154.78}, {"measurement": "REadj2, DHCR7", "setting": "[1]", "value": 1097.58}, {"measurement": "REadj2, FADS2", "setting": "[1]", "value": 263.98}, {"measurement": "REadj2, GBAP1", "setting": "[1]", "value": 186.37}, {"measurement": "REadj2, HACD1", "setting": "[1]", "value": 674.65}, {"measurement": "REadj2, HMGCS1", "setting": "[1]", "value": 1170.64}, {"measurement": "REadj2, LRP8", "setting": "[1]", "value": 125.76}, {"measurement": "REadj2, MVD", "setting": "[1]", "value": 534.91}, {"measurement": "REadj2, NCOR1", "setting": "[1]", "value": 68.44}, {"measurement": "REadj2, NEU1", "setting": "[1]", "value": 722.33}, {"measurement": "REadj2, NPC1", "setting": "[1]", "value": 154.34}, {"measurement": "REadj2, PHLDB2", "setting": "[1]", "value": 66.17}, {"measurement": "REadj2, PHYH", "setting": "[1]", "value": 813.79}, {"measurement": "REadj2, PLA2G15", "setting": "[1]", "value": 82.36}, {"measurement": "REadj2, PLA2G16", "setting": "[1]", "value": 222.24}, {"measurement": "REadj2, PRKAB2", "setting": "[1]", "value": 21.07}, {"measurement": "REadj2, PTGDS", "setting": "[1]", "value": 1080.74}, {"measurement": "REadj2, SOAT1", "setting": "[1]", "value": 393.50}, {"measurement": "REadj2, SPHK1", "setting": "[1]", "value": 195.74}, {"measurement": "REadj2, SREBF1", "setting": "[1]", "value": 312.15}, {"measurement": "REadj2, TXNRD1", "setting": "[1]", "value": 1483.80}, {"measurement": "REadj2, VAC14", "setting": "[1]", "value": 105.84}, {"measurement": "REadj2, SCD", "setting": "relative expression adjusted to detection limit (<20), Affymetrix probe set 11715561_s_at", "value": 634.95}, {"measurement": "REadj2, SCD", "setting": "relative expression adjusted to detection limit (<20), Affymetrix probe set 11715562_x_at", "value": 722.36}, {"measurement": "REadj2, SCD", "setting": "relative expression adjusted to detection limit (<20), Affymetrix probe set 11715563_s_at", "value": 558.17}, {"measurement": "REadj2, G6PD", "setting": "relative expression adjusted to detection limit (<20), Affymetrix probe set 11716292_a_at", "value": 348.08}, {"measurement": "REadj2, G6PD", "setting": "relative expression adjusted to detection limit (<20), Affymetrix probe set 11716293_x_at", "value": 239.53}, {"measurement": "REadj2, INSIG1", "setting": "relative expression adjusted to detection limit (<20), Affymetrix probe set 11716338_a_at", "value": 1101.68}, {"measurement": "REadj2, INSIG1", "setting": "relative expression adjusted to detection limit (<20), Affymetrix probe set 11716339_a_at", "value": 1249.89}, {"measurement": "REadj2, PPT1", "setting": "relative expression adjusted to detection limit (<20), Affymetrix probe set 11716533_a_at", "value": 249.91}, {"measurement": "REadj2, EBP", "setting": "relative expression adjusted to detection limit (<20), Affymetrix probe set 11717859_a_at", "value": 1025.83}, {"measurement": "REadj2, HSD17B14", "setting": "relative expression adjusted to detection limit (<20), Affymetrix probe set 11720588_a_at", "value": 154.64}, {"measurement": "REadj2, SERINC2", "setting": "relative expression adjusted to detection limit (<20), Affymetrix probe set 11721046_a_at", "value": 462.86}, {"measurement": "REadj2, ME1", "setting": "relative expression adjusted to detection limit (<20), Affymetrix probe set 11726265_at", "value": 1130.68}, {"measurement": "REadj2, CHKA", "setting": "relative expression adjusted to detection limit (<20), Affymetrix probe set 11736285_a_at", "value": 137.49}, {"measurement": "REadj2, CHKA", "setting": "relative expression adjusted to detection limit (<20), Affymetrix probe set 11736286_a_at", "value": 138.86}, {"measurement": "REadj2, ASAH1", "setting": "relative expression adjusted to detection limit (<20), Affymetrix probe set 11740582_a_at", "value": 1292.95}, {"measurement": "REadj2, PPT1", "setting": "relative expression adjusted to detection limit (<20), Affymetrix probe set 11742107_a_at", "value": 289.70}, {"measurement": "REadj2, ASAH1", "setting": "relative expression adjusted to detection limit (<20), Affymetrix probe set 11743547_a_at", "value": 1038.22}, {"measurement": "REadj2, PCYT2", "setting": "relative expression adjusted to detection limit (<20), Affymetrix probe set 11744044_s_at", "value": 239.50}, {"measurement": "REadj2, FADS1", "setting": "relative expression adjusted to detection limit (<20), Affymetrix probe set 11745459_a_at", "value": 1891.83}, {"measurement": "REadj2, LDLR", "setting": "relative expression adjusted to detection limit (<20), Affymetrix probe set 11746974_a_at", "value": 357.86}, {"measurement": "REadj2, PCYT2", "setting": "relative expression adjusted to detection limit (<20), Affymetrix probe set 11747322_s_at", "value": 216.32}, {"measurement": "REadj2, LDLR", "setting": "relative expression adjusted to detection limit (<20), Affymetrix probe set 11748045_x_at", "value": 380.34}, {"measurement": "REadj2, SERINC2", "setting": "relative expression adjusted to detection limit (<20), Affymetrix probe set 11748053_x_at", "value": 342.33}, {"measurement": "REadj2, TM7SF2", "setting": "relative expression adjusted to detection limit (<20), Affymetrix probe set 11748279_s_at", "value": 91.54}, {"measurement": "REadj2, EBP", "setting": "relative expression adjusted to detection limit (<20), Affymetrix probe set 11749332_x_at", "value": 907.86}, {"measurement": "REadj2, ABHD4", "setting": "relative expression adjusted to detection limit (<20), Affymetrix probe set 11749343_a_at", "value": 66.31}, {"measurement": "REadj2, ABHD4", "setting": "relative expression adjusted to detection limit (<20), Affymetrix probe set 11749376_a_at", "value": 69.48}, {"measurement": "REadj2, ME1", "setting": "relative expression adjusted to detection limit (<20), Affymetrix probe set 11750913_a_at", "value": 861.69}, {"measurement": "REadj2, GBA", "setting": "relative expression adjusted to detection limit (<20), Affymetrix probe set 11750975_x_at", "value": 250.68}, {"measurement": "REadj2, GBA", "setting": "relative expression adjusted to detection limit (<20), Affymetrix probe set 11751086_x_at", "value": 255.53}, {"measurement": "REadj2, DHCR24", "setting": "relative expression adjusted to detection limit (<20), Affymetrix probe set 11751337_a_at", "value": 191.39}, {"measurement": "REadj2, DHCR24", "setting": "relative expression adjusted to detection limit (<20), Affymetrix probe set 11751338_x_at", "value": 364.97}, {"measurement": "REadj2, G6PD", "setting": "relative expression adjusted to detection limit (<20), Affymetrix probe set 11752486_a_at", "value": 224.35}, {"measurement": "REadj2, FADS1", "setting": "relative expression adjusted to detection limit (<20), Affymetrix probe set 11752670_a_at", "value": 3012.88}, {"measurement": "REadj2, GBA", "setting": "relative expression adjusted to detection limit (<20), Affymetrix probe set 11753440_x_at", "value": 139.49}, {"measurement": "REadj2, FADS1", "setting": "relative expression adjusted to detection limit (<20), Affymetrix probe set 11755251_x_at", "value": 1908.34}, {"measurement": "REadj2, HSD17B14", "setting": "relative expression adjusted to detection limit (<20), Affymetrix probe set 11757575_x_at", "value": 89.08}, {"measurement": "REadj2, TM7SF2", "setting": "relative expression adjusted to detection limit (<20), Affymetrix probe set 11762755_x_at", "value": 61.24}]}
